In patent publication US20240307334A1 (Lieber Institute, Inc., priority 2023, published 2024):
Structures can show the parent of a compound that is named as a salt.

Key:
[1] = system: Tcf4+/tr mouse model of PTHS; assay: In vivo immunohistochemical (IHC) quantification of OPCs and OLs after two-week intraperitoneal dosing
Text: The Tcf4^+/tr mouse model of PTHS is heterozygous for an allele encoding deletion of the DNA-binding domain of TCF4 (B6; 129-TCF4tmlZhu/J, stock number 013598, Jackson Laboratory). This mouse colony was backcrossed for at least six generations, maintained by The Lieber Institute for Brain Developments Animal Facility on a 12-h light/dark cycle and fed ad libitum. Tcf4^+/tr mouse samples were matched with samples from Tcf4^+/+ littermates, and sex was randomly selected in each genotype and age group. All procedures were performed in accordance with the National Institutes of Health Guide for the Care and Use of Laboratory Animals and approved by the Johns Hopkins University School of Medicine's Institutional Animal Care and Use Committee.
(§1) The final pH was approximately 5.
(§2) Mice were dosed at 1.0 mg/kg/day for 14 days with either Sob-AM2 or NMP/Kolliphor solution (vehicle).
(§3) Cells were rinsed 1× with PBS and then fixed with 4% paraformaldehyde (PFA) for 5 minutes, following fixation cells were rinsed 3× with PBS. Similarly, mice were perfused with 20-30 mLs of 1× PBS, followed by 20-30 mLs of 4% PFA. Tissue was extracted and post fixed in 4% PFA on a rocker at 4° C. overnight. For immunostaining cells were rinsed 3× with 0.04% Tween 20 (Sigma 655204) while tissue (P42 mouse) was rinsed 3× with 0.4% Triton (Sigma X100). Cells were blocked in respective serum (10%) for 2 hours at room temperature on an orbital shaker. Following block, primary antibody was added in 2% serum in 0.04% Tween 20 for cells and 0.4% Triton-X 100 for tissue, and incubated overnight at 4° C. Following overnight incubation cells were rinsed 3× with 0.04% Tween 20 or 0.4% Triton respectively before adding the secondary antibody to incubate at room temperature for 2 hours. After incubation, cells were rinsed 3× in respective buffers and counterstained with DAPI (Invitrogen™, D1306). Visualization was carried out on a ZEISS LSM 700 Confocal. Imaging and quantification were performed blind to genotypes and conditions/treatments.
Next, we assessed the effectiveness of Sob-AM2 in vivo by dosing Tcf4^+/tr mice and Tcf4^+/+ littermates intraperitoneally with either Sob-AM2 (1 mg/kg) or vehicle for two weeks followed by immunohistochemical (IHC) quantification (FIG. 7D).

[2] = following systemic administration, prodrug compared with sobetirome; cited from earlier work
[3] = system: Tcf4+/tr mouse model of PTHS; assay: Novel open field assay (locomotor activity and anxiety); type: in vivo; conditions: Tcf4+/tr mice
Description: as §1, §2
Locomotor activity and anxiety was assessed using Noldus PhenoTyper cages as previously shown. Mickelsen et al., 2019. Each cage is outfitted with two sets of cameras; one on the ceiling that faces the platform (35 cm×35 cm), and another pointed at the side of the cage. Mice were acclimated to the experimentation room in their home cages for at least 1 h. During acclimation, the Noldus EthoVision software was set-up to track movement for 30 total minutes. After acclimation, mice were placed in the center of the open field, opaque Plexiglas was placed on all four sides of the cage to obscure any visual cues, and the trial was started in the EthoVision software. After 30 min, the trial ended, and mice were placed back into their home cages. Noldus EthoVision software was used to determine distance traveled, time spent in center, and frequency of going to center.
Next we treated Tcf4^+/tr mice and Tcf4^+/+ littermates with Sob-AM2 for 14 days and then assayed their behavior in the open field (FIG. 8A).

[4] = system: Tcf4+/tr mouse model of PTHS; assay: Transmission electron microscopy (TEM) of myelination in the corpus callosum; type: in vivo
Description: 5% DMA (dimethylacetamide, Sigma 271012) was added up to the total volume needed. […] The mixture was shaken vigorously (vortex) and was ready for administration for intraperitoneal (1P) dosing at 10 mL/kg. The final pH was approximately 5. […] Initial dosing was performed at P28 up until P42 when animals were then used for subsequent experiments.
After perfusion with a 0.1 M sodium cacodylate buffer, pH 7.2, containing 2% paraformaldehyde (freshly prepared from EM grade aqueous solution), 2% glutaraldehyde, and 3 mM MgCl2, p42 mouse brains were kept overnight in fixative. The next day brains were dissected in fixative and rinsed with sodium cacodylate buffer. Samples were then post-fixed in reduced 2% osmium tetroxide, 1.6% potassium ferrocyanide in buffer (2 hr) on ice in the dark. Following a dH2O rinse, samples were stained with 2% aqueous uranyl acetate (0.22 μm filtered, 1 hr, dark), dehydrated in a graded series of ethanol, propylene oxide and embedded in Eponate 12 (Ted Pella) resin. Samples were polymerized at 60° C. overnight. Thin sections, 60 to 90 nm, were cut with a diamond knife on the Reichert-Jung Ultracut E ultramicrotome and picked up with copper slot (1×2 mm) grids. Grids were stained with 2% uranyl acetate and observed with a Phillips CM120 TEM at 80 kV. Images were captured with an AMT XR80 CCD camera. Preparation of samples, TEM imaging, and quantification was performed blind to genotypes.
Blinded to genotype and condition, TEM images were taken on the CC directly above the hippocampus from anatomically equivalent tissue sections in littermates. […] To further validate this, we quantified BCAS1+ cells (pre-myelinating OLs).

multiple sclerosis = conditions: phase 2 clinical trial for multiple sclerosis; cited from earlier work
[5] = system: primary OPC/OL cultures from Tcf4+/tr and Tcf4+/+ mice; assay: Primary OPC and OL cultures: immunocytochemistry quantification of OPCs and OLs normalized to Olig2; type: cell-based, mouse; conditions: for OPCs (PDGFRα+/Olig2+) / mature OLs (MBP+/Olig2+): Tcf4+/tr cells
Description: Mice were dosed at 1.0 mg/kg/day for 14 days with either Sob-AM2 or NMP/Kolliphor solution (vehicle). Initial dosing was performed at P28 up until P42 when animals were then used for subsequent experiments.
Primary OPC and OLs were obtained following a previous protocol^19. In brief, P2-P3 pups were dissociated and plated at a density of 10.0×10^3 cells/cm^2 in a 96 well ibidi plate coated in 0.1% polyethyleneimine (PEI) and 0.5-μg/mL laminin. Cells were plated and maintained in OPC proliferation media consisting of 1× StemPro Neural supplement (Thermo Fisher Scientific, A1050801), 1× Anti-Anti (Thermo Fisher Scientific, 15240-096), 10 ng/mL of Human FGF-basic (Peprotech, 100-18B) and 30 ng/mL rhPDGF-AA (R&D systems, 221-AA), with a half media exchange on DIV4.
as §3
Mei et al., 2014; Yoshida et al., 2020. Following a previously established protocol, Yoshida et al., 2020, we dissociated and plated OPCs from both Tcf4^+/+ and Tcf4^+/tr mice onto 96-well plates in OPC proliferation media. […] We performed blinded quantification of OPCs and OLs using antibodies against PDGFRα and MBP, respectively, and normalized our counts with the pan-OL marker OLIG2 (FIG. 1B).
Hartley et al., 2019. We performed blinded quantification of OPCs and OLs using antibodies against PDGFRα and MBP, respectively, and normalized our counts with the pan-OL marker OLIG2 (FIG. 7A).

[6] = Tcf4+/tr mice, Sob-AM2 1 mg/kg intraperitoneally for two weeks
[7] = Sob-AM2 for 14 days, compared to vehicle-treated Tcf4+/tr littermates
[8] = Tcf4+/tr mice, clemastine 10 mg/kg intraperitoneally for two weeks (P28-P42)
[9] = clemastine (1 μM) DIV7 to DIV14, compared to vehicle treated Tcf4+/tr cells
[10] = clemastine for 14 days, 30 min open field
[11] = sobetirome (1 μM) 7 days to DIV14, compared to vehicle-treated Tcf4+/tr cells

CNC(=O)COc1cc(C)c(Cc2ccc(O)c(C(C)C)c2)c(C)c1 [Sob-AM2]
OPCs (PDGFRα+/Olig2+) [1, 6]: significant decrease in OPCs | mature OLs (CC1+/Olig2+) [1, 6]: significant increase in mature OLs | crossing of the blood brain barrier and distribution to the central nervous system [2]: better able to cross the blood brain barrier | frequency of entering the center of the open field [3, 7]: reduction in the frequency of entering the center of the open field | total distance traveled [3, 7]: significant reduction in total distance traveled

CN1CCC[C@@H]1CCO[C@](C)(c1ccccc1)c1ccc(Cl)cc1 [clemastine, clemastine fumarate]
density of uncompacted myelin ([4]; Tcf4+/tr mice, clemastine vs vehicle-treated Tcf4+/tr mice): significantly increased the density of uncompacted myelin | proportion of uncompacted myelin ([4]; Tcf4+/tr mice, relative to vehicle-treated Tcf4+/+ mice): normalized the proportion of uncompacted myelin | total myelin density ([4]; Tcf4+/tr mice, two week clemastine treatment): unable to restore Tcf4^+/+ levels of total myelin density | proportion of compact myelin per image ([4]; clemastine Tcf4+/+ and clemastine Tcf4+/tr): less compaction overall | number of BCAS1+ cells (pre-myelinating OLs) ([1]; Tcf4+/tr mice, 14 days clemastine): significantly increased the number of BCAS1+ cells | OPCs (PDGFRα+/Olig2+) [1, 8]: significant decrease in OPCs | mature OLs (CC1+/Olig2+) [1, 8]: significant increase in mature OLs | total number of Olig2 positive cells, in vivo ([1]; all conditions, in vivo assay): no effect on the total number of Olig2 positive cells | remyelination in patients (multiple sclerosis): showed remyelination capabilities | OPCs (PDGFRα+/Olig2+) [5, 9]: significant reduction in OPCs | mature OLs (MBP+/Olig2+) [5, 9]: an increase in OLs | total number of Olig2 positive cells, in vitro ([5]; all conditions, in vitro assay): no effect on the total number of Olig2 positive cells | frequency of entering the center of the field [3, 10]: reduction in the frequency of entering the center of the field | total distance traveled [3, 10]: significant reduction in total distance traveled

Cc1cc(OCC(=O)O)cc(C)c1Cc1ccc(O)c(C(C)C)c1 [sobetirome]
OPCs (PDGFRα+/Olig2+) [5, 11]: significant reduction in OPCs | mature OLs (MBP+/Olig2+) [5, 11]: an increase in OLs
